Measurements as given in ChEMBL document CHEMBL1697781, “Assessment of the health effects of chemicals in humans: II. Construction of an adverse effects database for QSAR modeling” (Curr Drug Discov Technol, 2004).

What was measured:
Conditions in all cases: human; call rule not given here
Hepatotoxicity [1] = assay: FDA HLAED, liver enzyme composite activity
Hepatotoxicity [2] = assay: FDA HLAED, lactate dehydrogenase (LDH) increase
Hepatotoxicity [3] = assay: FDA HLAED, alkaline phosphatase increase
Hepatotoxicity [4] = assay: FDA HLAED, gamma-glutamyl transferase (GGT) increase
Hepatotoxicity [5] = assay: FDA HLAED, serum glutamic oxaloacetic transaminase (SGOT) increase
Hepatotoxicity [6] = assay: FDA HLAED, serum glutamic pyruvic transaminase (SGPT) increase
Wherever GGT Increase - Index Value is given: reference of the scale not given here.
Wherever LDH Increase - Index Value is given: reference of the scale not given here.

Structure (SMILES) | Composite Activity - Active (Hepatotoxicity [1]) | Composite Activity - Marginal (Hepatotoxicity [1]) | Composite Activity - Score (Hepatotoxicity [1]) | LDH Increase - Activity Score (Hepatotoxicity [2]) | LDH Increase - Index Value (Hepatotoxicity [2]) | LDH Increase - Number of Reports (Hepatotoxicity [2]) | Alkaline Phosphatase Increase - Activity Score (Hepatotoxicity [3]) | Alkaline Phosphatase Increase - Index Value (Hepatotoxicity [3]) | Alkaline Phosphatase Increase - Number of Reports (Hepatotoxicity [3]) | GGT Increase - Activity Score (Hepatotoxicity [4]) | GGT Increase - Index Value (Hepatotoxicity [4]) | GGT Increase - Number of Reports (Hepatotoxicity [4]) | SGOT Increase - Activity Score (Hepatotoxicity [5]) | SGOT Increase - Index Value (Hepatotoxicity [5]) | SGOT Increase - Number of Reports (Hepatotoxicity [5]) | SGPT Increase - Activity Score (Hepatotoxicity [6]) | SGPT Increase - Index Value (Hepatotoxicity [6]) | SGPT Increase - Number of Reports (Hepatotoxicity [6]) | also measured
C[C@H]1[C@H](NC(=O)/C(=N\OC(C)(C)C(=O)O)c2csc(N)n2)C(=O)N1S(=O)(=O)O [AZTREONAM] | 1 | 2 | Inactive | Inactive | 0.6 | < 4 | Active | 6.9 | >= 4 | Inactive | 0.6 | < 4 | Marginally Active | 3.2 | >= 4 | Marginally Active | 3.8 | >= 4 | –
CCOC(=O)OC(C)OC(=O)[C@@H]1N2C(=O)[C@@H](NC(=O)[C@H](N)c3ccccc3)[C@H]2SC1(C)C (stereo partly specified) [BACAMPICILLIN] | 0 | 0 | Inactive | Inactive | 0 | < 4 | Inactive | 0 | < 4 | Inactive | 0 | < 4 | Inactive | 0 | < 4 | Inactive | 0 | < 4 | –
C[C@H]1C[C@H]2[C@@H]3CCC4=CC(=O)C=C[C@]4(C)[C@@]3(Cl)[C@@H](O)C[C@]2(C)[C@@]1(O)C(=O)CO [BECLOMETHASONE] | 0 | 0 | Inactive | Inactive | 0 | < 4 | Inactive | 0 | < 4 | Inactive | 0 | < 4 | Inactive | 0 | < 4 | Inactive | 0 | < 4 | –
CCOC(=O)[C@H](CCc1ccccc1)N[C@H]1CCc2ccccc2N(CC(=O)O)C1=O [BENAZEPRIL] | 0 | 0 | Inactive | Inactive | 0.2 | < 4 | Inactive | 0.3 | < 4 | Inactive | 0.2 | < 4 | Inactive | 0 | < 4 | Inactive | 0 | < 4 | –
CC(C)COCC(CN(Cc1ccccc1)c1ccccc1)N1CCCC1 (stereo unspecified) [BEPRIDIL] | 0 | 0 | Inactive | Inactive | 27.1 | < 4 | Inactive | 0 | < 4 | Inactive | 0 | < 4 | Inactive | 0 | < 4 | Inactive | 0 | < 4 | –
CC(C)NCC(O)COc1ccc(CCOCC2CC2)cc1 (stereo unspecified) [BETAXOLOL] | – | – | – | Inactive | 0 | < 4 | Inactive | 0 | < 4 | Inactive | 0 | < 4 | Inactive | 0 | < 4 | Inactive | 0 | < 4 | Composite Activity - Active (Hepatotoxicity [1]; Liver): 0; Composite Activity - Marginal (Hepatotoxicity [1]; Liver): 0; Composite Activity - Score (Hepatotoxicity [1]; Liver): Inactive
CC(O)(CS(=O)(=O)c1ccc(F)cc1)C(=O)Nc1ccc(C#N)c(C(F)(F)F)c1 (stereo unspecified) [BICALUTAMIDE] | 3 | 0 | Active | Inactive | 5.1 | < 4 | Active | 8.5 | >= 4 | Inactive | 1.7 | < 4 | Active | 13.6 | >= 4 | Active | 11.9 | >= 4 | –
CC(C)NCC(O)COc1ccc(COCCOC(C)C)cc1 (stereo unspecified) [BISOPROLOL] | 1 | 0 | Inactive | Inactive | 0 | < 4 | Inactive | 3.1 | < 4 | Active | 12.3 | < 4 | Inactive | 0 | < 4 | Inactive | 3.1 | < 4 | –
Cc1ccc(C(=O)Oc2ccc(C(O)CNC(C)(C)C)cc2OC(=O)c2ccc(C)cc2)cc1 (stereo unspecified) [BITOLTEROL] | 0 | 0 | Inactive | Inactive | 0 | < 4 | Inactive | 0 | < 4 | Inactive | 0 | < 4 | Inactive | 0 | < 4 | Inactive | 0 | < 4 | –
CC[N+](C)(C)Cc1ccccc1Br.Cc1ccc(S(=O)(=O)[O-])cc1 [BRETYLIUM TOSYLATE] | 0 | 0 | Inactive | Inactive | 0 | < 4 | Inactive | 0 | < 4 | Inactive | 0 | < 4 | Inactive | 0 | < 4 | Inactive | 0 | < 4 | –
Brc1c(NC2=NCCN2)ccc2nccnc12 [BRIMONIDINE] | – | – | – | Inactive | 0 | < 4 | Inactive | 0 | < 4 | Inactive | 0 | < 4 | Inactive | 1.1 | < 4 | Inactive | 0 | < 4 | Composite Activity - Active (Hepatotoxicity [1]; Liver): 0; Composite Activity - Marginal (Hepatotoxicity [1]; Liver): 0; Composite Activity - Score (Hepatotoxicity [1]; Liver): Inactive
CC(C)C[C@H]1C(=O)N2CCC[C@H]2[C@]2(O)O[C@](NC(=O)[C@@H]3C=C4c5cccc6[nH]c(Br)c(c56)C[C@H]4N(C)C3)(C(C)C)C(=O)N12 [BROMOCRIPTINE] | 0 | 0 | Inactive | Inactive | 0 | < 4 | Inactive | 0 | < 4 | Inactive | 0 | < 4 | Inactive | 0 | < 4 | Inactive | 0 | < 4 | –
